# Laboratory results as given in US7026334B1, “Thiazolidine compounds and pharmaceutical compositions exhibiting thrombopoietin receptor agonism” (Shionogi & Co., Ltd., priority 1999, dated 2006).
# pEC50: −log10 of the molar value.
# Target: T1, human TPO receptor (hTPOR) (Homo sapiens, UniProt P40238)
# T1 construct: expressed in transfected cells; host or cells: BaF-BO3 (murine IL-3 dependent pro-B cell line), giving BaF/hTPOR
# T1 sequence (P40238 26-635): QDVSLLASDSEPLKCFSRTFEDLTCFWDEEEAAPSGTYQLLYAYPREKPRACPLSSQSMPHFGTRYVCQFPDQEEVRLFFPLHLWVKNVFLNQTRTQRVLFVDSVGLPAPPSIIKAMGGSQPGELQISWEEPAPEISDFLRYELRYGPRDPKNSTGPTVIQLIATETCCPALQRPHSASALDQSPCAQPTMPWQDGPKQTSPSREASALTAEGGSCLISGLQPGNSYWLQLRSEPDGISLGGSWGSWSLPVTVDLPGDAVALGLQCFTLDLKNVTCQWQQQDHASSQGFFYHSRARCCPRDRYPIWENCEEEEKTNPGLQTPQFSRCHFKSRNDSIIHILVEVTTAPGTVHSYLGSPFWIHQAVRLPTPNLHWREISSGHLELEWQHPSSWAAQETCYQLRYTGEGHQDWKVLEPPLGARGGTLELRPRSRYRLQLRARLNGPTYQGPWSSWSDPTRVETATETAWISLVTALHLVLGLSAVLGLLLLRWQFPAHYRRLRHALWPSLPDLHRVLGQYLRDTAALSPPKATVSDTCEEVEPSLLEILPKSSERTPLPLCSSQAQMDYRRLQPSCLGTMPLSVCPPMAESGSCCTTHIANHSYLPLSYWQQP
# Experiment: Proliferation of TPO dependent BaF/hTPOR cells (thrombopoietic activity, WST-1)
# Type: cell-based
# Conditions: 20 hours + 4 hours WST-1, absorbance at 450 nm, ED50 = half concentration of the concentration showing the maximum thrombopoietic activity
# Text: The TPO dependent BaF/hTPOR cell line which was established by introducing human TPO receptor (hTPOR) into BaF-BO3 cells according to Collins et al (J. Cell. Physiol., 137:293-298 (1988)) was used to test the thrombopoietic activity of the present compound (B-17). The DNA sequences and encoded peptide sequences for human hTPOR have been described by Vigon et al (Proc. Natl. Acad. Sci. USA, 89:5640-5644 (1992)). […] BAF/hTPOR cells were maintained in RPMI medium and WEHI-3B conditioned medium as a source of murine interleukin-3 (IL-3). These cells were washed and resuspended in RPMI medium without a source of murine IL-3 and seeded into each well of 96-well microtiter plates at a density of […] cells per well in the absence or presence of various concentration of hTPO or the present compound. After incubation at 37° C. for 20 hours in the 5% CO2 incubator, 10% WST-1 reagent (Takara Biomedicals, Japan) was added to each wells and the cells were further incubated for 4 hours. Table 24 exemplifies the ED50 for tested compounds of the present invention, wherein the ED50 is the half concentration of the concentration showing the maximum thrombopoietic activity
row,Compound,pEC50
1,Cc1cc(Br)sc1-c1csc(NC(=O)c2ccc(/C=C3\SC(=S)NC3=O)cc2)n1 [Compound A-56],7.02
2,O=C1NC(=S)SC1=Cc1ccc(C(=O)Nc2nc(-c3ccc(Cl)cc3)cs2)cc1 [Compound A-5],7.66
3,O=C1NC(=S)S/C1=C\c1ccc(C(=O)Nc2nc3c(s2)CCc2ccccc2-3)cc1 [Compound A-49],7.46
4,O=C1NC(=S)S/C1=C\c1ccc(C(=O)Nc2nc(-c3cccc(OC(F)(F)F)c3)cs2)cc1 [Compound A-63],7.80
5,O=C1NC(=S)S/C1=C\c1ccc(C(=O)Nc2nc(-c3ccc([N+](=O)[O-])cc3)cs2)cc1 [Compound A-14],7.82
6,O=C1NC(=S)S/C1=C\c1ccc(C(=O)Nc2nc(-c3cccc(C(F)(F)F)c3)cs2)cc1 [Compound A-53],7.64
7,CCCCOC(=O)c1ccc(-c2csc(NC(=O)c3ccc(/C=C4\SC(=S)NC4=O)cc3)n2)cc1 [Compound A-26],7.14
8,CC(C)(C)c1ccc(-c2csc(NC(=O)c3ccc(/C=C4\SC(=S)NC4=O)cc3)n2)cc1 [Compound A-11],7.51
9,O=C1NC(=S)SC1=Cc1ccc(C(=O)Nc2nc(-c3ccccc3)cs2)cc1 [Compound A-2],7.24
10,CC(C)OC(=O)c1ccc(-c2csc(NC(=O)c3ccc(/C=C4\SC(=S)NC4=O)cc3)n2)cc1 [Compound A-25],7.00
11,COC(=O)c1ccc(-c2csc(NC(=O)c3ccc(/C=C4\SC(=S)NC4=O)cc3)n2)cc1 [Compound A-12],7.96
12,O=C1NC(=S)S/C1=C\c1ccc(C(=O)Nc2nc(-c3ccc(F)cc3)c(CCCl)s2)cc1 [Compound A-43],7.14
13,O=C1NC(=S)S/C1=C\c1ccc(C(=O)Nc2nc3c(s2)CCCc2ccccc2-3)cc1 [Compound A-50],7.59
14,O=C1NC(=S)SC1=Cc1ccc(C(=O)Nc2nc(-c3ccc(F)cc3)cs2)cc1 [Compound A-3],7.77
15,CCc1sc(NC(=O)c2ccc(/C=C3\SC(=S)NC3=O)cc2)nc1-c1ccccc1 [Compound A-38],7.33
16,O=C1NC(=S)S/C1=C\c1ccc(C(=O)Nc2nc(-c3ccc(F)c(F)c3)cs2)cc1 [Compound A-20],7.54
17,O=C1NC(=S)SC1=Cc1ccc(C(=O)Nc2nc(-c3ccc(-c4ccccc4)cc3)cs2)cc1 [Compound A-7],7.22

row,Compound,pEC50
1,CCOC(=O)c1sc(NC(=O)c2ccc(/C=C3\SC(=S)NC3=O)cc2)nc1-c1ccccc1 [Compound A-32],7.11
2,O=C1NC(=S)S/C1=C\c1ccc(C(=O)Nc2nc3c(s2)CSc2ccccc2-3)cc1 [Compound A-59],7.08
3,O=C1NC(=S)S/C1=C\c1ccc(C(=O)Nc2nc(-c3ccc(Cl)s3)cs2)cc1 [Compound A-15],7.59
4,O=C1NC(=S)S/C1=C\c1ccc(C(=O)Nc2nc(-c3cc(F)c(F)cc3F)cs2)cc1 [Compound A-71],7.10
5,O=C1NC(=S)S/C1=C\c1ccc(C(=O)Nc2nc(-c3cccc(Br)c3)cs2)cc1 [Compound A-72],7.46
6,COC(=O)c1sc(NC(=O)c2ccc(/C=C3\SC(=S)NC3=O)cc2)nc1-c1ccc(F)cc1 [Compound A-42],7.14
7,O=C1NC(=S)S/C1=C\c1ccc(C(=O)Nc2nc(-c3ccc(F)cc3F)cs2)cc1 [Compound A-70],7.70
8,O=C1NC(=S)S/C1=C\c1ccc(C(=O)Nc2nc(-c3cccs3)cs2)cc1 [Compound A-16],7.31
9,O=C1NC(=S)S/C1=C\c1ccc(C(=O)Nc2nc(-c3ccc(I)cc3)cs2)cc1 [Compound A-73],7.15
10,Cc1ccc(-c2csc(NC(=O)c3ccc(C=C4SC(=S)NC4=O)cc3)n2)cc1 [Compound A-6],7.35
11,O=C1NC(=S)S/C1=C\c1ccc(C(=O)Nc2nc(-c3ccc(Br)s3)cs2)cc1 [Compound A-21],7.39
12,O=C1NC(=S)SC1=Cc1ccc(C(=O)Nc2nc(-c3ccc(Br)cc3)cs2)cc1 [Compound A-4],7.44
13,O=C1NC(=S)S/C1=C\c1ccc(C(=O)Nc2nc(-c3ccccc3F)cs2)cc1 [Compound A-67],7.30
14,O=C1NC(=S)S/C1=C\c1ccc(C(=O)Nc2nc(-c3ccc(Cl)c(Cl)c3)cs2)cc1 [Compound A-1],7.92
15,Cc1sc(NC(=O)c2ccc(/C=C3\SC(=S)NC3=O)cc2)nc1-c1ccc(Cl)cc1 [Compound A-37],7.57
16,O=C1NC(=S)S/C1=C\c1ccc(C(=O)Nc2nc(-c3cccc(F)c3)cs2)cc1 [Compound A-64],7.33
17,O=C1NC(=S)S/C1=C\c1ccc(C(=O)Nc2nc(-c3ccc(C(F)(F)F)cc3)cs2)cc1 [Compound A-61],7.16

# The next lines start with the values.
row,pEC50,Compound
1,7.80,O=C1NC(=O)/C(=C/c2ccc(C(=O)Nc3nc(-c4ccc(F)c(F)c4)cs3)cc2)S1 [Compound B-18]
2,7.33,Cc1ccc(-c2csc(NC(=O)c3ccc(C=C4SC(=O)NC4=O)cc3)n2)cc1 [Compound B-5]
3,7.15,O=C1NC(=O)C(=Cc2ccc(C(=O)Nc3nc(-c4ccccc4)cs3)cc2)S1 [Compound B-1]
4,7.64,O=C1NC(=O)/C(=C/c2ccc(C(=O)Nc3nc(-c4ccc(Cl)s4)cs3)cc2)S1 [Compound B-14]
5,7.14,O=C1NC(=O)C(=Cc2ccc(C(=O)Nc3nc(-c4ccc(-c5ccccc5)cc4)cs3)cc2)S1 [Compound B-6]
6,7.96,O=C1NC(=O)C(=Cc2ccc(C(=O)Nc3nc(-c4ccc(F)cc4)cs3)cc2)S1 [Compound B-2]
7,7.08,O=C1NC(=O)/C(=C/c2ccc(C(=O)Nc3nc4c(s3)CCc3ccccc3-4)cc2)S1 [Compound B-21]
8,7.33,O=C1NC(=O)C(=Cc2ccc(C(=O)Nc3nc(-c4ccc(Br)cc4)cs3)cc2)S1 [Compound B-3]
9,7.11,O=C1NC(=O)/C(=C/c2ccc(C(=O)Nc3nc(-c4cccs4)cs3)cc2)S1 [Compound B-15]
10,7.70,O=C1NC(=O)/C(=C/c2ccc(C(=O)Nc3nc(-c4ccc(Cl)c(Cl)c4)cs3)cc2)S1 [Compound B-16]
11,7.17,O=C1NC(=O)C(=Cc2ccc(C(=O)Nc3nc(-c4ccc(Cl)c(Cl)c4)cs3)cc2)O1 [Compound C-1]
12,7.43,O=C1NC(=O)C(=Cc2ccc(C(=O)Nc3nc(-c4ccc(Cl)cc4)cs3)cc2)S1 [Compound B-4]
13,7.21,O=C1NC(=O)C(=Cc2ccc(C(=O)Nc3nc(-c4ccc(Cl)c(Cl)c4)cs3)s2)S1 [Compound E-2]

# Test system: BaF-BO3 cells
# Experiment: Growth of the parental cell line BaF-BO3 not expressing TPOR
# Type: cell-based
# Conditions: FIG. 3
row,Compound,proliferation of parental BaF cells bearing no TPOR
1,"TPO: Thrombopoietin, polypeptide cytokine composed of 332 amino acids; Human TPO (hTPO) purchased from R&D Systems",dose not have any ability to support proliferation
